Measured values: patent publication US20060035810A1, “Regulation of ins(3456)p4 signalling by a reversible kinase phosphatase and methods and compositions related thereto” (priority 2002, published 2006)

Legend:
[1] = biological target: T1, Ins(1,3,4,5,6)P5 1-phosphatase activity of Ins(3,4,5,6)P4 kinase (Homo sapiens, UniProt Q13572); test: Inositol phosphate phosphatase activity assay with ADP (HPLC); assay type: biochemical
T1 construct: made in house; host or cells: E. coli
T1 sequence (Q13572 1-414): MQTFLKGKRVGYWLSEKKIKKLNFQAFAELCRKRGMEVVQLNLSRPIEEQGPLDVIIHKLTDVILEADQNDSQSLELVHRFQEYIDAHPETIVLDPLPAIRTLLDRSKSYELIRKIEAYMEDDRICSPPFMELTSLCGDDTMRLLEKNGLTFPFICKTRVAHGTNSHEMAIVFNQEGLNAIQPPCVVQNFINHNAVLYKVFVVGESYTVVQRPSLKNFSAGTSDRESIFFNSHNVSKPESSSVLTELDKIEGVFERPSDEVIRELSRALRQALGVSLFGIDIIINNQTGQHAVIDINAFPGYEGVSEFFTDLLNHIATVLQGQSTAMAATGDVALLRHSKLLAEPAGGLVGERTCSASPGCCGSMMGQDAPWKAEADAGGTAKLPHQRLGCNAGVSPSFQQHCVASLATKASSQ
Method: Ins(3,4,5,6)P4 kinase (0.4 μg) was incubated for 30 min in 100 μl phosphatase assay buffer (see Methods) either with (closed circles) or without (open circles) 5 mM ADP plus trace-amounts of either [^3H]Ins(1,3,4,5,6)P5 (panel A) [^3H]Ins(1,3,4,6)P4 (panel B), or [^3H]Ins(1,3,4,5)P4 (panel C). Samples were analyzed by HPLC (see Methods). The elution positions of Ins(1,3,4)P3 and Ins(3,4,5,6)P4 were verified with genuine standards. The elution positions of Ins(1,3,4,6)P4 (106 min, panel B) and of Ins(1,3,4,5)P4 (110 min, panel C) exclude these as products of InsP5 dephosphorylation (panel A).
Additional incubations were performed with 5 μM [^3H]Ins(1,3,4)P3 (approx. 1200 d.p.m.) plus either no Ins(1,3,4,5,6)P5 (open circles) or 5 μM non-radiolabeled Ins(1,3,4,5,6)P5 (closed circles); these reactions were assayed by HPLC (Synchropak Q100 column) and the InsP4 region of the chromatogram is shown in Panel B.
Inositol phosphate phosphatase activity was assayed in buffer containing 100 mM KCl, 20 mM HEPES pH 7.2, 5 mM ADP, 6 mM MgSO4, 0.3 mg/ml bovine serum albumin. Assays were acid-quenched, neutralized and analyzed by HPLC using a Synchropak Q100 columm (Caffrey et al., “Expanding Coincident Signaling by PTEN through its Inositol 1,3,4,5,6-Pentakisphosphate 3-phosphatase Activity,” FEBS Lett 499: 6-10 (2001)); 1 ml fractions were collected for 70 min., followed by 0.5 ml fractions. Inositol phosphate kinase activity was assayed in buffer containing 100 mM KCl, 20 mM HEPES pH 7.2, 5 mM ATP, 10 mM phosphocreatine, 6 mM MgSO4, 10 μg/ml creatine phosphokinase (Calbiochem), 0.3 mg/ml bovine serum albumin. Some assays were acid-quenched and analyzed by HPLC using a Synchropak Q100 column. Other reactions were heat-inactivated (95° C., 3 min) and analyzed by a metal dye detection, HPLC method (Mayr, “A novel metal-dye detection sysytem permits picomolar-range h.p.l.c. analysis of inositol polyphosphates from non-radioactively labelled cell or tissue specimens,” Biochem J 254: 585-591 (1988); Adelt et al., “Enzyme-assisted total synthesis of the optical antipodes D-myo-inositol 3,4,5-trisphosphate and D-myo-inositol 1,5,6-trisphosphate: aspects of their structure-activity relationship to biologically active inositol phosphates,” J Med Chem 42: 1262-1273 (1999)).

[2] = tested on: calcium-activated Cl− channels; settings: read-out: sensitivity of calcium-activated Cl− channels to Ins(3,4,5,6)P4 (IC50); cited from earlier work
[3] = tested on: calcium-activated Cl− channels; test: Whole-cell Cl− current in CFPAC-1 cells (bio-assay for Ins(3,4,5,6)P4); assay type: cell-based, human; settings: 10 μM in CFPAC-1 cells; control 54±3 pA/pF; +40 mV, free [Ca2+] 0.5 μM
Method: T84 cells were detached by incubation with 0.25% (w/v) trypsin/0.02% (w/v) EDTA for 5-6 min. After trypsin removal, 200 μl aliquots (1.5×10^6/ml) were seeded into the circular wells (area=0.45 cm^2) of permeable supports, made by gluing (Silastic® sealant, Dow Corning, Midland, Mich.) a Sylgard® ring to filters composed of mixed cellulose esters (Millipore Corp., Bedford, Mass.). Seeded supports were floated on culture medium and incubated for 11-14 days before being mounted in modified Snapwell holders in Using chambers (EasyMount System, Physiologics Instruments, San Diego, Calif.). Transcellular Cl^− flux was then recorded as the short-circuit current as previously described. The resistance of the monolayers were (vector) 346±44 ohms/cm^2 (mean±se, n=12) and (kinase) 354±62 ohms/cm^2 (mean±se, n=12). Whole-cell Cl^− currents in CFPAC—I cells were measured at +40 mV as previously described using an intracellular Ca^2+-BAPTA buffer to clamp free [Ca^2+] to 0.5 μM [8]. One possibility is that Ins(3,4,5,6)P4 originates by phosphorylation of an InsP3 precursor. […] Control whole-cell Cl^− current (54±3 pA/pF, n—17) was reduced to 24±3 pA/pF (n=7) by 10 μM Ins(3,4,5,6)P4.

Vmax for dephosphorylation ([1]; with Ins(1,3,4)P3 present) [pmol/μg protein/min]	SMILES	product of ADP-dependent dephosphorylation ([1]; 5 mM ADP, trace amounts of substrate)	IC50 [2] [nM]	whole-cell Cl− current [3] [pA/pF]
82	O=P(O)(O)OC1[C@@H](OP(=O)(O)O)[C@H](OP(=O)(O)O)C(O)[C@H](OP(=O)(O)O)[C@H]1OP(=O)(O)O (stereo partly shown) [Ins(1,3,4,5,6)P5, inositol 1,3,4,5,6-pentakisphosphate]	dephosphorylated to an [^3H]InsP4 peak co-eluting upon HPLC with a standard of Ins(3,4,5,6)P4	–	–
–	O=P(O)(O)OC1C(O)C(O)C(OP(=O)(O)O)C(OP(=O)(O)O)C1OP(=O)(O)O (stereo not shown) [Ins(3,4,5,6)P4, inositol 3,4,5,6-tetrakisphosphate]	–	3000	24±3
